From paper PMC11540844, “Enhancing transcription–replication conflict targets ecDNA-positive cancers” (Nature, 2024)
Values joined by “and” are separate entries in the source; they are usually repeats but may differ in a detail not shown here. Equal entries are not always repeated. Where two headings read alike, the source gives them in different places.

Assays:
SNU16 cells = assay: Cell viability (CellTiter-Glo); type: cell-based, human; conditions: for 3-day Cell Titer Glo relative signal (Source data Ext Fig 10b): Control SNU16, replicates; for IC50: Homo sapiens
Procedure: Cell viability assay was performed using CellTiter-Glo (Promega, catalgoue no. G8461) as previously described. Briefly, cells were seeded into a 384-well plate one day before adding inhibitors. Equal volumes of vehicles or drugs diluted at indicated concentration were added into each well the next day, and the cells were incubated for three days. On the third day, after equilibrating plate and CellTiter-Glo reagent at room temperature for 30 min, reagent was added into each well and incubated for 15 min at room temperature. Luminescence was measured using a Synergy 2 microplate reader. Four biological replicates were performed for each condition. Data analysis was performed with GraphPad Prism (v.9.1.0). […]

[1] = tested on: infigratinib-resistant SNU16 cells; assay: 3-day Cell Titer Glo in SNU16 cells after 8 weeks of infigratinib; type: cell-based, human; conditions: for 3-day Cell Titer Glo relative signal (Source data Ext Fig 10b): infi-intermed 8 wk SNU16, replicates
From the text: (§1) Nuclear staining is illustrated using DAPI (blue). […] Scale bar represents 10 µm. (b) Timeline of experimental overview. […] Lane 1 (control) is from a non-contiguous portion of the gel from lanes 2 and 3 (infigratinib treated samples).

SNU16 xenograft tumours = assay: SNU16 xenograft tumour model, tumour volume; type: in vivo, mice; conditions: for tumour volume, individual mice: Infigratinib 15 mg/kg PO QD
Procedure: Animal experiments were performed in accordance with protocols approved by the Charles River Accelerator and Development Lab (CRADL) Institutional Animal Care and Use Committee (protocol no. EB17-010-066). Mice were socially housed in individually ventilated cages on a 12/12 h light/dark cycle with temperatures between 65 and 75 °F and 30–50% humidity. The SNU16 gastric cancer cell line was purchased from ATCC (catalogue no. CRL5974) and maintained in Roswell Park Memorial Institute growth medium (Gibco, catalogue no. 22400-089) supplemented with 10% FBS (Omega Scientific, catalogue no. FB-02). To establish tumours, 1 × 10^6 SNU16 cells in 200 µl of a 1:1 mixture of PBS and Matrigel (Corning, catalogue no. 354234) were given by subcutaneous injection into the right flank of 9-week-old female severe combined immunodeficient beige mice (Envigo, strain code 186). Tumour measurements were taken two to three times per week and body weights were taken daily. Tumour volume measurements were obtained using digital calipers and tumour volumes (mm^3) were determined using the formula: tumour volume = (L × W2)/2, where L is the length/largest tumour diameter and W is the width/shortest tumour diameter, with all tumours collected before reaching 1,500 mm^3. Animals (eight mice per group, which historically allowed for significance determination between vehicle and infigratinib) were randomly assigned to unblinded treatment with vehicle, infigratinib (15 mg kg^−^1 oral (PO) once-daily (QD)), BBI-2779 (30 mg kg^−^1 PO every other day (Q2D)) or the combination of BBI-2779 and infigratinib once average tumour volume was 285 (±10)/mean (±s.e.m.) mm^3. One vehicle tumour was taken down on day 22; the mouse was sacrificed due to large tumour volume. Infigratinib was formulated in a 1:1 mixture of sodium acetate buffer, pH 4.6 and polyethylene glycol 300. BBI-2779 was formulated in 0.5% methylcellulose (Sigma-Aldrich, catalogue no. M0512) and 0.2% Tween 80 (AG Scientific, catalogue no. T-2835) in HyPure Molecular Biology Grade Water (HyClone, catalogue no. SH30538.02). […] Animals were sacrificed 6 h, 24 h or 36 h after the last dose, and tumours were collected for western blot or copy number analysis.

[2] = tested on: FGFR2 copy number in SNU16 cells; assay: qPCR quantification of FGFR2 oncogene number in SNU16 cells; type: cell-based, human; conditions: 8.0 weeks of infigratinib
From the text: as §1

FGFR2 copy number = FGFR2 copy number by qPCR on xenograft tumour DNA; type: in vivo, mice; conditions: infigratinib 15 mg kg-1 PO QD
Procedure: For copy number analysis, tumours were cut into 10–20 mg pieces and flash-frozen in liquid nitrogen. DNA was extracted using the QIAcube DNA Extraction Kit (Qiagen, no. 51331). Briefly, a mixture of buffer ATL and proteinase K was added to the frozen tumour pieces, and they were set out to equilibrate to room temperature. Tumours were then vortexed for 30 s and placed into an incubator at 56 °C to digest overnight. The next morning, an additional 150 μl of buffer ATL was added and samples vortexed for an additional 30 s to reduce the viscosity of the samples before transfer to the S block. Qiagen protocol for the 96 QIAcube HT was followed for the remainder of the DNA isolation. Purified DNA was quantified for the presence of double-stranded DNA on the QIAxpert (Qiagen, catalogue no. 9002340). The DNA was diluted to 5 ng µl^−^1 (5× working stock) in RNase/DNase free water (Thermo Fisher Scientific, catalogue no. 10977015) and 2 µl was loaded into a 384-well plate. […]

Q: CCN1CCN(c2ccc(Nc3cc(N(C)C(=O)Nc4c(Cl)c(OC)cc(OC)c4Cl)ncn3)cc2)CC1 [infigratinib] was tested. Which “3-day Cell Titer Glo relative signal (Source data Ext Fig 10b)” value (“3-day Cell Titer Glo relative signal” for short) (SNU16 cells; 0.152416 nM infigratinib) did it give?
A: Its value is 1.0456 and 1.0233.

Q: And the “3-day Cell Titer Glo relative signal” value (SNU16 cells; 0.457247 nM infigratinib)?
A: The value was 0.9513 and 0.976.

Q: And the “3-day Cell Titer Glo relative signal” value (SNU16 cells; 1.37174 nM infigratinib)?
A: The value was 0.9221 and 0.9386.

Q: And the “3-day Cell Titer Glo relative signal” value (SNU16 cells; 4.11523 nM infigratinib)?
A: Its value is 0.7516 and 0.791.

Q: What about the “3-day Cell Titer Glo relative signal” value (SNU16 cells; 12.3457 nM infigratinib) of the same compound?
A: Its value is 0.4353 and 0.4209.

Q: What about the “3-day Cell Titer Glo relative signal” value (SNU16 cells; 37.037 nM infigratinib) of the same compound?
A: The value was 0.1753 and 0.1537.

Q: What about the “3-day Cell Titer Glo relative signal” value (SNU16 cells; 111.111 nM infigratinib) of the same compound?
A: Its value is 0.1409 and 0.1325.

Q: And the “3-day Cell Titer Glo relative signal” value (SNU16 cells; 333.333 nM infigratinib)?
A: The value was 0.1569 and 0.1376.

Q: And the “3-day Cell Titer Glo relative signal” value (SNU16 cells; 1000 nM infigratinib)?
A: Its value is 0.1554 and 0.1292.

Q: And the IC50 (SNU16 cells; SNU-16, 72 h, control SNU16 cells, 3-day Cell Titer Glo, Extended Data Fig. 10b, read-out: "IC50" control)?
A: Its IC50 is 7.85 nM.

Q: And the IC50 (SNU16 cells; SNU-16, SNU16 cells, Extended Data Fig. 10, read-out: IC50 (EC50 dose used for 8 weeks of treatment))?
A: Its IC50 is 25 nM.

Q: And the IC50 ([1]; Homo sapiens, SNU-16, SNU16 after 8 weeks of infigratinib, 3-day Cell Titer Glo)?
A: Its IC50 is 30.1 nM.

Q: And the “3-day Cell Titer Glo relative signal” value ([1]; 0.152416 nM infigratinib)?
A: The value was 0.9851 and 1.028.

Q: What about the “3-day Cell Titer Glo relative signal” value ([1]; 0.457247 nM infigratinib) of the same compound?
A: The value was 1.032 and 1.122.

Q: And the “3-day Cell Titer Glo relative signal” value ([1]; 1.37174 nM infigratinib)?
A: Its value is 1.185 and 1.134.

Q: And the “3-day Cell Titer Glo relative signal” value ([1]; 4.11523 nM infigratinib)?
A: Its value is 1.087 and 1.319.

Q: And the “3-day Cell Titer Glo relative signal” value ([1]; 12.3457 nM infigratinib)?
A: Its value is 1.111 and 1.106.

Q: And the “3-day Cell Titer Glo relative signal” value ([1]; 37.037 nM infigratinib)?
A: The value was 0.3322 and 0.3782.

Q: What about the “3-day Cell Titer Glo relative signal” value ([1]; 111.111 nM infigratinib) of the same compound?
A: Its value is 0.158 and 0.1671.

Q: What about the “3-day Cell Titer Glo relative signal” value ([1]; 333.333 nM infigratinib) of the same compound?
A: The value was 0.14 and 0.158.

Q: And the “3-day Cell Titer Glo relative signal” value ([1]; 1000 nM infigratinib)?
A: The value was 0.1637 and 0.1685.

Q: And the “tumour volume, individual mice” value (SNU16 xenograft tumours; day of study 1)?
A: The value was 275.78 mm^3 and 318.63 mm^3 and 234.6 mm^3 and 333.76 mm^3 and 272.35 mm^3 and 399.19 mm^3 and 215.35 mm^3 and 244.48 mm^3.

Q: And the “tumour volume, individual mice” value (SNU16 xenograft tumours; day of study 5)?
A: The value was 207 mm^3 and 207.01 mm^3 and 194.06 mm^3 and 114.59 mm^3 and 223.51 mm^3 and 272.2 mm^3 and 162.32 mm^3 and 141.42 mm^3.

Q: What about the “tumour volume, individual mice” value (SNU16 xenograft tumours; day of study 8) of the same compound?
A: The value was 138.07 mm^3 and 126.44 mm^3 and 146.81 mm^3 and 70.82 mm^3 and 180.25 mm^3 and 231.85 mm^3 and 107.33 mm^3 and 100.66 mm^3.

Q: What about the “tumour volume, individual mice” value (SNU16 xenograft tumours; day of study 11) of the same compound?
A: Its value is 156.25 mm^3 and 176.04 mm^3 and 166.7 mm^3 and 123.46 mm^3 and 218.18 mm^3 and 282.27 mm^3 and 116.93 mm^3 and 111.73 mm^3.

Q: And the “tumour volume, individual mice” value (SNU16 xenograft tumours; day of study 13)?
A: The value was 172.17 mm^3 and 176.87 mm^3 and 188.21 mm^3 and 133.63 mm^3 and 270.33 mm^3 and 330.51 mm^3 and 108.35 mm^3 and 124.21 mm^3.

Q: And the “tumour volume, individual mice” value (SNU16 xenograft tumours; day of study 15)?
A: The value was 126.09 mm^3 and 205.17 mm^3 and 263.36 mm^3 and 166 mm^3 and 337.92 mm^3 and 367.94 mm^3 and 166.72 mm^3 and 154.6 mm^3.

Q: What about the “tumour volume, individual mice” value (SNU16 xenograft tumours; day of study 18) of the same compound?
A: Its value is 157.95 mm^3 and 204.33 mm^3 and 255.64 mm^3 and 193.27 mm^3 and 380.93 mm^3 and 448.61 mm^3 and 202.33 mm^3 and 176.11 mm^3.

Q: And the “tumour volume, individual mice” value (SNU16 xenograft tumours; day of study 20)?
A: Its value is 165.11 mm^3 and 203.59 mm^3 and 221.67 mm^3 and 192.93 mm^3 and 417.82 mm^3 and 479.35 mm^3 and 231.86 mm^3 and 168.05 mm^3.

Q: And the “tumour volume, individual mice” value (SNU16 xenograft tumours; day of study 22)?
A: The value was 223.01 mm^3 and 251.01 mm^3 and 223.64 mm^3 and 246.07 mm^3 and 397.26 mm^3 and 479.73 mm^3 and 254.62 mm^3 and 184.76 mm^3.

Q: What about the “tumour volume, individual mice” value (SNU16 xenograft tumours; day of study 25) of the same compound?
A: The value was 231.38 mm^3 and 244.62 mm^3 and 333.8 mm^3 and 257.4 mm^3 and 426.98 mm^3 and 499.94 mm^3 and 237.29 mm^3 and 196.21 mm^3.

Q: What about the “tumour volume, individual mice” value (SNU16 xenograft tumours; day of study 27) of the same compound?
A: Its value is 227.44 mm^3 and 236.39 mm^3 and 325 mm^3 and 271.28 mm^3 and 505.17 mm^3 and 681.55 mm^3 and 273.5 mm^3 and 238.76 mm^3.

Q: And the “mean per cent tumour growth inhibition” value (SNU16 xenograft tumours; infigratinib 15 mg kg^−1 PO QD, day 25, vs vehicle, P < 0.0005)?
A: The value was 97%.

Q: And the “FGFR2 CN” value [2]?
A: Its value is 332.123.

Q: What about the “FGFR2 copy number by qPCR on tumour DNA, individual tumours” value (FGFR2 copy number) of the same compound?
A: The value was 356.837 and 338.53 and 324.931 and 257.5 and 276.141 and 331.223 and 308.687 and 333.495.
